Test results as given in PMC11093748, “De novo identification of CD4^+ T cell epitopes” (Nature Methods, 2024).

Key:
[1] = system: Jurkat cells, No TCR; experiment: Single SABR-II co-incubation, background without TCR; type: cell-based, human
Summary of the method: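 Single SABR-II constructs for putative cognate epitopes were expressed in CellTrace Violet-labelled NFAT–GFP Jurkat cells and co-incubated 1:1 (5 × 10^5 each) with TCR-expressing Jurkat cells for 16–20 h. GFP (with CD69 staining when indicated) was measured by flow cytometry. Wells with GFP above the no-TCR control were scored positive.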

[2] = system: TCR3; experiment: Single SABR-II co-incubation, NFAT-GFP Jurkat; type: cell-based, mouse; conditions: TCR 3, Fig 5C
Excerpt: Given the predominance of HIP-reactive TCRs, we hypothesized that there may be other TCRs that respond to HIPs that were not encoded in our initial library configuration. While the initial I-Ag7 SABR-II library consisted of a number of HIPs, HIP formation is thought to be more widespread in pancreatic β-cells[52],[70]. Therefore, we sought to construct a defined, HIP-focused library to probe whether there were any undiscovered HIP-reactive TCRs that could be recognized by the clonally expanded TCR in our dataset. To test this, we utilized a published proteomic dataset, which predicted that several proteins that were highly expressed in secretory granules of β-cells may contribute to HIP formation. Using their predictions, we built a theoretical HIP library, in which all possible ‘left’ halves of the insulin C chain derived from natural cleavage products were fused to ‘right’ halves derived from secretory granule proteins (Fig. 5a). This 2,561-epitope library (12–25 amino acids per epitope) consisted of only HIPs and a small number of positive control epitopes (Supplementary Table 5). We screened the top three clonally expanded TCRs (TCR1, TCR2 and TCR3) against this library, as these TCRs had not been de-convoluted using the original library. […] To confirm that the HIP itself was important for the cognate interaction, we cloned single 14-mer epitopes into SABR-IIs consisting of seven amino acids of the left portion of the HIP and seven amino acids of the right portion of the HIP. In this way, no nine amino acids from either peptide sequence alone could occupy the binding pocket of I-Ag7, ensuring that TCR reactivity spanned the HIP junction. […] Of note, in all the epitopes that were tested, the ‘left’ half derived from insulin C was conserved, whereas the ‘right’ halves were derived from several other proteins (Fig. 5d). […] Moreover, the promiscuous binding of TCR3 to HIPs corroborates evidence from other NOD mouse-derived TCRs reacting to multiple HIPs[72].
For SABR library screens, 3 × 10^6 NFAT–GFP Jurkat cells expressing the SABR library were labeled with CellTrace Violet (BioLegend) according to the manufacturer’s protocol before incubation with 3 × 10^6 Jurkat cells expressing the TCR of interest. These mixtures were incubated in a six-well plate for 16–20 h. Cells were stained with anti-CD69-APC-Cy7 where indicated (BioLegend) and the top 1–2% of GFP^+CD69^+ cells were sorted for genomic DNA extraction, indexing and sequencing (see below). Multiplexed assays were scaled on a per-TCR basis (for example 3 × 10^6 for each of three TCRs against 9 × 10^6 library cells). For single SABR assays, unless otherwise defined, 5 × 10^5 SABR expressing NFAT–GFP Jurkat cells (or 5KC cells) were labeled with CellTrace Violet (BioLegend) according to the manufacturer’s protocol before incubation with 5 × 10^5 TCR-expressing Jurkat cells (or 5KC cells) in a round-bottom 96-well plate for 16–20 h. Cells were stained with anti-CD69-APC-Cy7 when indicated and acquired on the Attune NxT flow cytometer (Thermo Fisher Scientific). All flow analysis was performed using FlowJo (BD). For Daudi cell co-culture, 1 × 10^6 Jurkat cells expressing the TCR of interest were incubated with 1 × 10^6 Daudi cells expressing a SABR of interest for 3 days. On day 3, cells were labeled with anti-RT1B-PE and anti-Fas-APC-Cy7 before being acquired on the Attune NxT flow cytometer.

[3] = No TCR, Fig 3B, 18 h, biological replicate 1
[4] = No TCR, Fig 3B, 18 h, biological replicate 2
[5] = No TCR, Fig 3B, 18 h, biological replicate 3
[6] = No TCR, Fig 4B, technical replicate 1
[7] = No TCR, Fig 4B, technical replicate 2

| Sequence | %GFP+CD69+ cells of SABR-NFAT-GFP-Jurkat cells ([1]; No TCR, Ext. Data Fig. 6C, 18-20 hr, technical replicate 1) [%] | %GFP+CD69+ cells of SABR-NFAT-GFP-Jurkat cells ([1]; No TCR, Ext. Data Fig. 6C, 18-20 hr, technical replicate 2) [%] | %GFP+CD69+ cells of SABR-NFAT-GFP-Jurkat cells [1, 3] [%] | %GFP+CD69+ cells of SABR-NFAT-GFP-Jurkat cells [1, 4] [%] | %GFP+CD69+ cells of SABR-NFAT-GFP-Jurkat cells [1, 5] [%] | %GFP+CD69+ cells of SABR-NFAT-GFP-Jurkat cells [1, 6] [%] | %GFP+CD69+ cells of SABR-NFAT-GFP-Jurkat cells [1, 7] [%] | %GFP+CD69+ cells of SABR-NFAT-GFP-Jurkat cells ([1]; No TCR, Fig 5C, technical replicate 1) [%] | %GFP+CD69+ cells of SABR-NFAT-GFP-Jurkat cells ([1]; No TCR, Fig 5C, technical replicate 2) [%] | %GFP+CD69+ cells of SABR-NFAT-GFP-Jurkat cells ([2]; technical replicate 1) [%] | %GFP+CD69+ cells of SABR-NFAT-GFP-Jurkat cells ([2]; technical replicate 2) [%] | %GFP+CD69+ cells of SABR-NFAT-GFP-Jurkat cells ([1]; Mock TCR, Fig 4B, technical replicate 1) [%] | %GFP+CD69+ cells of SABR-NFAT-GFP-Jurkat cells ([1]; Mock TCR, Fig 4B, technical replicate 2) [%] | %GFP+CD69+ cells of SABR-NFAT-GFP-Jurkat cells ([1]; No TCR, Fig 4B, technical replicate 3) [%] |
| --- | --- | --- | --- | --- | --- | --- | --- | --- | --- | --- | --- | --- | --- | --- |
| LQTLALNAARDP | 3.08 | 3.07 | 2.51 | 6.93 | 3.6 | 1.39 | 1.36 | 0.73 | 0.75 | 0.94 | 0.89 | – | – | – |
| SHLVEALYLVCGERG | – | – | 2 | 3.5 | 1.84 | 0.93 | 1.04 | – | – | – | – | 3.46 | 3.03 | 1.2 |
